From patent publication US20240317752A1, “6-SUBSTITUTED-9H-PURINE DERIVATIVES AND RELATED USES” (Black Diamond Therapeutics, Inc., priority 2021, published 2024) come the findings set out here.

For this assay, the target named is T1, BaF3 BRAF-KIAA1549 fusion cells (Homo sapiens, UniProt P15056).
T1 construct: The BRAF-KIAA1549 fusion mutant was subcloned into pMXs-IRES-Blasticidin (RTV-016, Cell Biolabs, San Diego, CA); fused on or other part: Q9HCM3 (UPF0606 protein KIAA1549)
The assay can be described thus: BaF3 BRAF-KIAA1549 fusion cell proliferation assay (CellTiterGlo). In kind it is cell-based. Particulars: 96 hours incubation, potency code. Summed up:
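BaF3 cells stably transduced with a BRAF-KIAA1549 fusion, blasticidin-selected and growing without IL-3, were treated with compound for 96 h in RPMI/10% heat-inactivated FBS. Viability read as ATP content by CellTiterGlo luminescence, normalised to DMSO-treated cells. IC50 by Levenberg-Marquardt fit.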

T1 sequence (P15056 whole entry, change not shown, the tested form may be a part): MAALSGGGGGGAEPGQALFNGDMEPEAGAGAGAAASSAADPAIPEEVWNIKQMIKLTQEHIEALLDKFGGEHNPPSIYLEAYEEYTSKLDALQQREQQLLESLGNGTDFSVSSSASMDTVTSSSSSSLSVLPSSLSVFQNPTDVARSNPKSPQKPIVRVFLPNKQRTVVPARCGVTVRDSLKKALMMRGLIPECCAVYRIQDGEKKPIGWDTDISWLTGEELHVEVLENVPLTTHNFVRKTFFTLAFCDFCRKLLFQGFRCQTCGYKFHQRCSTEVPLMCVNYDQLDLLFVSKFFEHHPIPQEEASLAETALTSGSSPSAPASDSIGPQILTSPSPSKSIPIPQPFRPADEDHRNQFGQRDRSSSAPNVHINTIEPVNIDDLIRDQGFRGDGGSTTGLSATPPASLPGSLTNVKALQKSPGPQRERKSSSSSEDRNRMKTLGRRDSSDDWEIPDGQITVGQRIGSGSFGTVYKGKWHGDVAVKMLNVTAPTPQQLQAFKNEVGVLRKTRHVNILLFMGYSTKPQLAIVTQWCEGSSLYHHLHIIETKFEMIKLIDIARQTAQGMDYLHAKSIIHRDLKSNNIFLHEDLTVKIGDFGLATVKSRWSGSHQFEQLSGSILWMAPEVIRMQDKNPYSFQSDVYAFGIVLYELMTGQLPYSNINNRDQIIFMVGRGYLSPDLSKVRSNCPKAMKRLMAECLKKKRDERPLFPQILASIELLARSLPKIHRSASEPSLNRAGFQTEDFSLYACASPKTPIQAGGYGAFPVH

In turn, `Cc1nc2c(-c3cccnc3Nc3cc(NC(=O)c4ccnc(C(C)(C)C#N)c4)ccc3C)ncnc2[nH]1` [IA-127, 2-(2-cyanopropan-2-yl)-N-(4-methyl-3-((3-(8-methyl-9H-purin-6-yl)pyridin-2-yl)amino)phenyl)isonicotinamide] came in with a GI50 below 20 nM. `Cc1nc2c(-c3cccnc3Nc3cc(NC(=O)c4cc(C(F)(F)F)c(F)cn4)ccc3C)ncnc2[nH]1` [IA-128, 5-fluoro-N-(4-methyl-3-((3-(8-methyl-9H-purin-6-yl)pyridin-2-yl)amino)phenyl)-4-(trifluoromethyl)picolinamide]: the GI50 is below 20 nM. For `Cc1nc2c(-c3cccnc3Nc3cc(NC(=O)c4cc(C(F)(F)F)c(OCCO)cn4)ccc3C)ncnc2[nH]1` [IA-129, 5-(2-hydroxyethoxy)-N-(4-methyl-3-((3-(8-methyl-9H-purin-6-yl)pyridin-2-yl)amino)phenyl)-4-(trifluoromethyl)picolinamide], the GI50 is below 20 nM. Turning to `Cc1nc2c(-c3cccnc3Nc3cc(NC(=O)c4cc(C(O)C(F)(F)F)ccn4)ccc3C)ncnc2[nH]1` (stereo not drawn) [IA-130, N-(4-methyl-3-((3-(8-methyl-9H-purin-6-yl)pyridin-2-yl)amino)phenyl)-4-(2,2,2-trifluoro-1-hydroxyethyl)picolinamide], the GI50 is below 20 nM. `Cc1ccc(NC(=O)CC2CCCNCC2)cc1Nc1ncccc1-c1ncnc2[nH]cnc12` (stereo not drawn) [IA-131, N-(3-(3-(9H-purin-6-yl)pyridin-2-ylamino)-4-methylphenyl)-2-(azepan-4-yl)acetamide] returned a GI50 of at least 500 nM. The compound `Cc1ccc(NC(=O)CC2CCCN(C)CC2)cc1Nc1ncccc1-c1ncnc2[nH]cnc12` (stereo not drawn) [IA-132, N-(3-(3-(9H-purin-6-yl)pyridin-2-ylamino)-4-methylphenyl)-2-(1-methylazepan-4-yl)acetamide] showed a 50% growth inhibitory concentration (GI50) of at least 500 nM. `Cc1ccc(NC(=O)CN2CCCOCC2)cc1Nc1ncccc1-c1ncnc2[nH]cnc12` [IA-133, N-(3-((3-(9H-purin-6-yl)pyridin-2-yl)amino)-4-methylphenyl)-2-(1,4-oxazepan-4-yl)acetamide] showed a GI50 of at least 500 nM. For `Cc1ccc(NC(=O)CN2CCCNCC2)cc1Nc1ncccc1-c1ncnc2[nH]cnc12` [IA-134, N-(3-((3-(9H-purin-6-yl)pyridin-2-yl)amino)-4-methylphenyl)-2-(1,4-diazepan-1-yl)acetamide], the 50% growth inhibitory concentration (GI50) is at least 500 nM. For `Cc1ccc(NC(=O)CN2CCCN(C)CC2)cc1Nc1ncccc1-c1ncnc2[nH]cnc12` [IA-135, N-(3-((3-(9H-purin-6-yl)pyridin-2-yl)amino)-4-methylphenyl)-2-(4-methyl-1,4-diazepan-1-yl)acetamide], the 50% growth inhibitory concentration (GI50) was at least 500 nM. As to `Cc1ccc(NC(=O)CC2CCN(C)CCO2)cc1Nc1ncccc1-c1ncnc2[nH]cnc12` (stereo not drawn) [IA-136, N-(3-(3-(9H-purin-6-yl)pyridin-2-ylamino)-4-methylphenyl)-2-(4-methyl-1,4-oxazepan-7-yl)acetamide], the GI50 is at least 500 nM. `Cc1ccc(NC(=O)c2cccc(C(F)(F)F)c2)cc1Nc1ncccc1-c1ncnc2[nH]cnc12` [IA-145, N-(3-((3-(9H-purin-6-yl)pyridin-2-yl)amino)-4-methylphenyl)-3-(trifluoromethyl)benzamide] had a concentration for 50% growth inhibition (GI50) below 20 nM. With `Cc1nc(-c2cccnc2Nc2cc(NC(=O)c3cc(C(F)(F)F)ccn3)ccc2C)c2nc[nH]c2n1` [IA-150, N-(4-methyl-3-((3-(2-methyl-9H-purin-6-yl)pyridin-2-yl)amino)phenyl)-4-(trifluoromethyl)picolinamide], the 50% growth inhibitory concentration (GI50) is at least 500 nM. The compound `Cc1ccc(NC(=O)c2cc(C(F)(F)F)ccn2)cc1Nc1ncccc1-c1nc(F)nc2[nH]cnc12` [IA-151, N-(3-(3-(2-fluoro-9H-purin-6-yl)pyridin-2-ylamino)-4-methylphenyl)-4-(trifluoromethyl)picolinamide] registered a GI50 of at least 500 nM. For the compound `Cc1ccc(NC(=O)c2cc(C(F)(F)F)ccn2)cc1Nc1nccc(C)c1-c1ncnc2[nH]cnc12` [IA-152], the GI50 was at least 500 nM. The compound `Cc1ccc(C(=O)Nc2cccc(C(F)(F)F)c2)cc1Nc1ncccc1-c1ncnc2[nH]cnc12` [II-3, 3-((3-(9H-Purin-6-yl)pyridin-2-yl)amino)-4-methyl-N-(3-(trifluoromethyl)phenyl)benzamide] had a GI50 below 20 nM.
